Data published in patent US8729087B2, “Compositions and methods for inhibition of the JAK pathway” (Rigel Pharmaceuticals, Inc., priority 2006, dated 2014).
Like-named read-outs stand apart in the source and are kept apart here.

Columns and labels:
[1] = test system: Ramos B-cell line stimulated with IL-4; assay: Assay for Ramos B-Cell Line Stimulated with IL-4 (CD23 upregulation, FACS); format: cell-based, human; conditions: IL-4 50 units/mL, 20-24 hours, anti-CD23-PE staining, FACS, read-out: Example 2 (IC50, Ramos B-cell line stimulated with IL-4)
From the text: One means of assaying for such inhibition is detection of the effect of the 2,4-pyrimidinediamine compounds on the upregulation of downstream gene products. In the Ramos/IL4 assay, B-cells are stimulated with the cytokine Interleukin-4 (IL-4) leading to the activation of the JAK/Stat pathway through phosphorylation of the JAK family kinases, JAK1 and JAK3, which in turn phosphorylate and activate the transcription factor Stat-6. […] To study the effect of inhibitors (e.g., the 2,4-substituted pyrimindinediamine compounds described herein) on the JAK1 and JAK3 kinases, human Ramos B cells are stimulated with human IL-4. Twenty to 24 hours post stimulation, cells are stained for upregulation of CD23 and analyzed using flow cytometry (FACS). […] An exemplary assay of this type is described in greater detail in Example 2.
B-cells stimulated with cytokine Interleukin-4 (IL-4) activate the JAK/Stat pathway through phosphorylation of the JAK family kinases, JAK-1 and JAK-3, which in turn phosphorylate and activate the transcription factor Stat-6. […] To study the effect of inhibitors on the JAK family kinases, human Ramos B cells are stimulated with human IL-4.
The Ramos B-cell line was acquired from ATCC (ATCC Catalog No. CRL-1596). The cells were cultured in RPMI 1640 (Cellgro, MediaTech, Inc., Herndon, Va., Cat No. 10-040-CM) with 10% fetal bovine serum (FBS), heat inactivated (JRH Biosciences, Inc, Lenexa, Kans., Cat No. 12106-500M) according to ATCC propagation protocol. Cells were maintained at a density of 3.5×10^5. The day before the experiment, Ramos B-cells were diluted to 3.5×10^5 cells/mL to ensure that they were in a logarithmic growth phase.
Cells were spun down and suspended in RPMI with 5% serum. 5×10^4 cells were used per point in a 96-well tissue culture plate. Cells were pre-incubated with compound or DMSO (Sigma-Aldrich, St. Louis, Mo., Cat No. D2650) vehicle control for 1 hour in a 37° C. incubator.
Cells were then stimulated with IL-4 (Peprotech Inc., Rocky Hill, N.J., Cat No. 200-04) for a final concentration of 50 units/mL for 20-24 hours. Cells were then spun down and stained with anti-CD23-PE (BD Pharmingen, San Diego, Calif., Cat No. 555711) and analyzed by FACS. Detection was performed using a BD LSR I System Flow Cytometer, purchased from Becton Dickinson Biosciences of San Jose, Calif.

Primary human T-cells = assay: Primary Human T-Cell Proliferation Assay Stimulated with IL-2 (CellTiter-Glo); format: cell-based; conditions: IL-2, 72 hours, ATP quantitation (CellTiter-Glo), read-out: Example 3 (IC50, primary human T-cell proliferation stimulated with IL-2)
From the text: The activity of the active compounds of the invention may further be characterized by assaying the effect of the 2,4-pyrimidinediamine compounds described herein on the proliferative response of primary human T-cells. In this assay, primary human T-cells derived from peripheral blood and pre-activated through stimulation of the T-cell receptor and CD28, proliferate in culture in response to the cytokine Interleukin-2 (IL-2). This proliferative response is dependent on the activation of JAK1 and JAK3 tyrosine kinases, which phosphorylate and activate the transcription factor Stat-5. The primary human T-cells are incubated with the 2,4-pyrimidinediamine compounds in the presence of IL-2 for 72 hours and at the assay endpoint intracellular ATP concentrations are measured to assess cell viability. A reduction in cell proliferation compared to control conditions is indicative of inhibition of the JAK kinase pathway. An exemplary assay of this type is described in greater detail in Example 3.
Primary human T-cells derived from peripheral blood and pre-activated through stimulation of the T-cell receptor and CD28, proliferate in vitro in response to the cytokine Interleukin-2 (IL-2). This proliferative response is dependent on the activation of JAK-1 and JAK-3 tyrosine kinases, which phosphorylate and activate the transcription factor Stat-5.
Human primary T cells were prepared as follows. Whole blood was obtained from a healthy volunteer, mixed 1:1 with PBS, layered on to Ficoll Hypaque (Amersham Pharmacia Biotech, Piscataway, N.J., Catalog #17-1440-03) in 2:1 blood/PBS:ficoll ratio and centrifuged for 30 min at 4° C. at 1750 rpm. The lymphocytes at the serum: ficoll interface were recovered and washed twice with 5 volumes of PBS. The cells were resuspended in Yssel's medium (Gemini Bio-products, Woodland, Calif., Catalog #400-103) containing 40 U/mL recombinant IL2 (R and D Systems, Minneapolis, Minn., Catalog #202-IL (20 μg)) and seeded into a flask pre-coated with 1 μg/mL anti-CD3 (BD Pharmingen, San Diego, Calif., Catalog #555336) and […] (Immunotech, Beckman Coulter of Brea Calif., Catalog #IM1376). The primary T-cells were stimulated for 3-4 days, then transferred to a fresh flask and maintained in RPMI with 10% FBS and 40 U/mL IL-2.
Primary T-cells were washed twice with PBS to remove the IL-2 and resuspended in Yssel's medium at 2×10^6 cells/mL. 50 μL of cell suspension containing 80 U/mL IL-2 was added to each well of a flat bottom 96 well black plate. For the unstimulated control, IL-2 was omitted from the last column on the plate. Compounds were serially diluted in dimethyl sulfoxide (DMSO, 99.7% pure, cell culture tested, Sigma-Aldrich, St. Louis, Mo., Catalog No. D2650) from 5 mM in 3-fold dilutions, and then diluted 1:250 in Yssel's medium. 50 μL of 2× compound was added per well in duplicate and the cells were allowed to proliferate for 72 hours at 37° C.
Proliferation was measured using CellTiter-Glo® Luminescent Cell Viability Assay (Promega), which determines the number of viable cells in culture based on quantitation of the ATP present, as an indicator of metabolically active cells. The substrate was thawed and allowed to come to room temperature. After mixing the Cell Titer-Glo reagent and diluent together, 100 μL was added to each well. The plates were mixed on an orbital shaker for two minutes to induce lysis and incubated at room temperature for an additional ten minutes to allow the signal to equilibrate. Detection was performed using a Wallac Victor2 1420 multilabel counter purchased from Perkin Elmer, Shelton, Conn.

| Compound | IC50 ([1]; Homo sapiens, Ramos) [nM] | IC50 (Primary human T-cells) [nM] | IC50 [1] [nM] | IC50 (Primary human T-cells; Homo sapiens, T-cell, 72 h) [nM] |
| --- | --- | --- | --- | --- |
| NS(=O)(=O)c1ccc(Nc2ncc(F)c(Nc3cc4c(cc3F)CS(=O)(=O)N4)n2)cc1 [Compound V-1, N2-(4-aminosulfonyl)phenyl-5-fluoro-N4-(2,2-dioxo-5-fluoro-1,3-dihydrobenzo[c]isothiazol-6-yl)-2,4-pyrimidinediamine] | 12400 |  |  |  |
| CCS(=O)(=O)NCc1cccc(Nc2nc(Nc3ccc(CS(=O)(=O)NC)cc3)ncc2F)c1 [Compound I-12, N4-(3-ethylsulfonylaminomethyl)phenyl-5-fluoro-N2-(4-methylaminosulfonylmethyl)phenyl-2,4-pyrimidinediamine] |  | 1380 | 314 |  |
| CN1CCC(NS(=O)(=O)C=C2C=CC=C(Nc3nc(NC4=CC=CC(=CS(N)(=O)=O)C4)ncc3F)C2)CC1 [Compound I-21, N2-[3-(Aminosulfonylmethylene)phenyl]-5-fluoro-N4-[3-(1-methylpiperidin-4-ylaminosulfonylmethylene)phenyl]-2,4-pyrimidinediamine] | 2550 |  |  |  |
| Cc1cnc(Nc2cccc(S(N)(=O)=O)c2)nc1Nc1ccc2c(c1)C(NS(C)(=O)=O)CC2 (racemic) [VI-1, (+/−)-N2-(3-Aminosulfonylphenyl)-5-methyl-N4-[1-(methylsulfonyl)aminoindan-6-yl]-2,4-pyrimidinediamine] | 312 |  |  |  |
| C#CCOC(=O)NCc1ccc(Nc2nc(Nc3cccc(CS(N)(=O)=O)c3)ncc2F)cc1 [Compound I-14, N2-(3-Aminosulfonylmethylphenyl)-5-fluoro-N4-{4-[(prop-2-ynyloxy)carbonylaminomethyl]phenyl}-2,4-pyrimidinediamine] | 354 |  |  |  |
| CC1(C)Oc2ccc(Nc3nc(Nc4ccc5c(c4)NS(=O)(=O)CO5)ncc3F)nc2NC1=O [Compound V-4, N4-[2,2-dimethyl-3-oxo-4H-pyrid[1,4]oxazin-7-yl]-N2-[3,3-dioxo-1H-benzo[e][1,3,4]oxathiazin-7-yl]-5-fluoro-2,4-pyrimidinediamine] | 794 |  |  | 1720 |
| CCCN(Cc1ccc(Nc2nc(Nc3ccc(CS(=O)(=O)NC)cc3)ncc2F)cc1)S(=O)(=O)CC [Compound I-9, N4-[4-(N-ethylsulfonyl-N-propyl)aminomethyl]phenyl-5-fluoro-N2-(4-methylaminosulfonylmethyl)phenyl-2,4-pyrimidinediamine] |  | 1380 | 224 |  |
| Cc1cnc(Nc2ccc(CNS(=O)(=O)c3cccnc3)cc2)nc1Nc1ccc(CNS(=O)(=O)c2cccnc2)cc1 [II-3, N2,N4-bis[4-(pyrid-3-yl)sulfonylaminomethyl]phenyl-5-methyl-2,4-pyrimidinediamine] |  |  | 322 |  |
| CCS(=O)(=O)NCCc1ccc(Nc2nc(Nc3ccc(CS(=O)(=O)NC)cc3)ncc2F)cc1 [Compound I-15, N4-[4-(2-ethylsulfonylamino)ethyl]phenyl-5-fluoro-N2-(4-methylaminosulfonylmethyl)phenyl-2,4-pyrimidinediamine] |  |  | 378 |  |
| O=S(=O)(NCc1ccc(Nc2ncc(C(F)(F)F)c(Nc3ccc(CNS(=O)(=O)C4CC4)cc3)n2)cc1)C1CC1 [II-4, N2,N4-bis(4-cyclopropylsulfonylaminomethyl)phenyl-5-trifluoromethyl-2,4-pyrimidinediamine] |  | 423 | 136 |  |
| CC1(C)Oc2ccc(Nc3nc(Nc4ccc5c(c4)CN(S(N)(=O)=O)CC5)ncc3F)nc2NC1=O [III-3, N2-(2-Aminosulfonyl-1,2,3,4-tetrahydroisoquinolin-7-yl)-N4-(2,2-dimethyl-3-oxo-4H-5-pyrid[1,4]oxazin-6-yl)-5-fluoro-2,4-pyrimidinediamine] |  | 269 | 72.9 |  |
| NS(=O)(=O)c1cccc(Nc2ncc(F)c(Nc3cc4c(cc3F)CS(=O)(=O)N4)n2)c1 [Compound V-2, N2-(3-aminosulfonyl)phenyl-5-fluoro-N4-(2,2-dioxo-5-fluoro-1,3-dihydrobenzo[c]isothiazol-6-yl)-2,4-pyrimidinediamine] | 14800 |  |  | 24200 |
| Cc1ccc(Nc2ncc(F)c(Nc3cc4c(cc3F)CS(=O)(=O)N4)n2)cc1S(N)(=O)=O [Compound V-3, N2-(3-aminosulfonyl-4-methyl)phenyl-5-fluoro-N4-(2,2-dioxo-5-fluoro-1,3-dihydrobenzo[c]isothiazol-6-yl)-2,4-pyrimidinediamine] | 12900 |  |  |  |
| C#CCOc1ccc(Nc2nc(Nc3cccc(CS(N)(=O)=O)c3)ncc2F)cc1 [Compound I-3, N2-(3-Aminosulfonylmethylphenyl)-5-fluoro-N4-[4-(prop-2-ynyloxy)phenyl]-2,4-pyrimidinediamine] | 93.1 |  |  | 782 |
| Cn1nccc1NC(=O)Cc1cccc(Nc2nc(Nc3cccc(CS(N)(=O)=O)c3)ncc2F)c1 [Compound I-20, N2-[3-(Aminosulfonylmethylene)phenyl]-5-fluoro-N4-[(1-methylpyrazolyl-5-aminocarbonylmethylene)phenyl]-5-fluoro-2,4-pyrimidinediamine] |  |  | 1140 |  |
| Cc1cnc(Nc2cccc(CNS(=O)(=O)C3CC3)c2)nc1Nc1ccc2c(n1)CCC(=O)O2 [Compound V-5] | 391 |  |  |  |
| N2-(3-Aminosulfonylmethylenephenyl)-5-fluoro-N4-[2-(2-N-morpholinoethylaminoacrbonyl)benzofuran-5-yl]-2,4-pyrimidinediamine [IV-5] |  |  | 3040 |  |
| C#CCn1ccc2cc(Nc3nc(Nc4cccc(CS(N)(=O)=O)c4)ncc3F)ccc21 [IV-3, N2-(3-Aminosulfonylmethylphenyl)-5-fluoro-N4-[1-(propyn-3-yl)indol-5-yl]-2,4-pyrimidinediamine] | 214 |  |  | 1980 |
